Data reported in ChEMBL document CHEMBL5257089, “Gamabufotalin Induces Apoptosis and Cytoprotective Autophagy through the mTOR Signaling Pathway in Hepatocellular Carcinoma” (J Nat Prod, 2023).
The source made the active and inactive calls. The calls are words filed in the database; no cut-off is given here.

What was measured:
Hep 3B2 [1] = test: Induction of apoptosis in human Hep3B cells assessed as viable cells at 10 nM incubated for 48 hrs by Annexin V-FITC/PI staining based flow cytometry method (Rvb =95.7%); format: functional; conditions: read-out: Activity
Hep 3B2 [2] = test: Induction of apoptosis in human Hep3B cells assessed as early apoptotic cells at 10 nM measured after 48 hrs by Annexin V-FITC/PI staining based flow cytometry method (reference value: 1.3%); format: functional
Hep 3B2 [3] = test: Induction of apoptosis in human Hep3B cells assessed as late apoptotic cells at 10 nM incubated for 48 hrs by Annexin V-FITC/PI staining based flow cytometry method (reference value: 2.2%); format: functional
Hep 3B2 [4] = test: Induction of apoptosis in human Hep3B cells assessed as necrotic cells at 10 nM incubated for 48 hrs by Annexin V-FITC/PI staining based flow cytometry method (reference value: 0.7%); format: functional
Hep 3B2 [5] = test: Induction of apoptosis in human Hep3B cells assessed as viable cells at 10 nM incubated for 48 hrs in presence of gamabufotalin by Annexin V-FITC/PI staining based flow cytometry method (Rvb =95.7%); format: functional; conditions: read-out: Activity
Hep 3B2 [6] = test: Induction of apoptosis in human Hep3B cells assessed as early apoptotic cells at 10 nM measured after 48 hrs in presence of gamabufotalin by Annexin V-FITC/PI staining based flow cytometry method (reference value: 1.3%); format: functional
Hep 3B2 [7] = test: Induction of apoptosis in human Hep3B cells assessed as late apoptotic cells at 10 nM incubated for 48 hrs in presence of gamabufotalin by Annexin V-FITC/PI staining based flow cytometry method (reference value: 2.2%); format: functional
Hep 3B2 [8] = test: Induction of apoptosis in human Hep3B cells assessed as necrotic cells at 10 nM incubated for 48 hrs in presence of gamabufotalin by Annexin V-FITC/PI staining based flow cytometry method (reference value: 0.7%); format: functional
Huh-7 [9] = test: Induction of apoptosis in human Huh-7 cells assessed as viable cells at 10 nM incubated for 48 hrs by Annexin V-FITC/PI staining based flow cytometry method (reference value: 90.0%); format: functional; conditions: read-out: Activity
Huh-7 [10] = test: Induction of apoptosis in human Huh-7 cells assessed as early apoptotic cells at 10 nM incubated for 48 hrs by Annexin V-FITC/PI staining based flow cytometry method (reference value: 4.3%); format: functional
Huh-7 [11] = test: Induction of apoptosis in human Huh-7 cells assessed as late apoptotic cells at 10 nM incubated for 48 hrs by Annexin V-FITC/PI staining based flow cytometry method (reference value: 3.8%); format: functional
Huh-7 [12] = test: Induction of apoptosis in human Huh-7 cells assessed as necrotic cells at 10 nM incubated for 48 hrs by Annexin V-FITC/PI staining based flow cytometry method (reference value: 1.9%); format: functional
Huh-7 [13] = test: Induction of apoptosis in human Huh-7 cells assessed as viable cells at 10 nM incubated for 48 hrs in presence of gamabufotalin by Annexin V-FITC/PI staining based flow cytometry method (reference value: 90.0%); format: functional; conditions: read-out: Activity
Huh-7 [14] = test: Induction of apoptosis in human Huh-7 cells assessed as early apoptotic cells at 10 nM incubated for 48 hrs in presence of gamabufotalin by Annexin V-FITC/PI staining based flow cytometry method (reference value: 4.3%); format: functional
Huh-7 [15] = test: Induction of apoptosis in human Huh-7 cells assessed as late apoptotic cells at 10 nM incubated for 48 hrs in presence of gamabufotalin by Annexin V-FITC/PI staining based flow cytometry method (reference value: 3.8%); format: functional
Huh-7 [16] = test: Induction of apoptosis in human Huh-7 cells assessed as necrotic cells at 10 nM incubated for 48 hrs in presence of gamabufotalin by Annexin V-FITC/PI staining based flow cytometry method (reference value: 1.9%); format: functional
Hep 3B2 [17] = test: Induction of apoptosis in human Hep3B cells assessed as upregulation of cleaved PARP level at 10 uM incubated for 48 hrs in presence of gamabufotalin by immunoblot analysis; format: functional, cell-based
Hep 3B2 [18] = test: Induction of apoptosis in human Hep3B cells assessed as upregulation of PARP level at 10 uM incubated for 48 hrs in presence of gamabufotalin by immunoblot analysis; format: functional, cell-based
Hep 3B2 [19] = test: Induction of apoptosis in human Hep3B cells assessed as upregulation of cleaved caspase-3 level at 10 uM incubated for 48 hrs in presence of gamabufotalin by immunoblot analysis; format: functional, cell-based
Hep 3B2 [20] = test: Induction of apoptosis in human Hep3B cells assessed as upregulation of caspase-3 level at 10 uM incubated for 48 hrs in presence of gamabufotalin by immunoblot analysis; format: functional, cell-based
Hep 3B2 [21] = test: Induction of apoptosis in human Hep3B cells assessed as upregulation of bax level at 10 uM incubated for 48 hrs in presence of gamabufotalin by immunoblot analysis; format: functional, cell-based
Hep 3B2 [22] = test: Induction of apoptosis in human Hep3B cells assessed as reduction in bcl-2 level at 10 uM incubated for 48 hrs in presence of gamabufotalin by immunoblot analysis; format: functional, cell-based
Huh-7 [23] = test: Induction of apoptosis in human Huh-7 cells assessed as upregulation of cleaved PARP level at 10 uM incubated for 48 hrs in presence of gamabufotalin by immunoblot analysis; format: functional, cell-based
Huh-7 [24] = test: Induction of apoptosis in human Huh-7 cells assessed as upregulation of PARP level at 10 uM incubated for 48 hrs in presence of gamabufotalin by immunoblot analysis; format: functional, cell-based
Huh-7 [25] = test: Induction of apoptosis in human Huh-7 cells assessed as upregulation of cleaved caspase-3 level at 10 uM incubated for 48 hrs in presence of gamabufotalin by immunoblot analysis; format: functional, cell-based
Huh-7 [26] = test: Induction of apoptosis in human Huh-7 cells assessed as upregulation of caspase-3 level at 10 uM incubated for 48 hrs in presence of gamabufotalin by immunoblot analysis; format: functional, cell-based
Huh-7 [27] = test: Induction of apoptosis in human Huh-7 cells assessed as upregulation of bax level at 10 uM incubated for 48 hrs in presence of gamabufotalin by immunoblot analysis; format: functional, cell-based
Huh-7 [28] = test: Induction of apoptosis in human Huh-7 cells assessed as reduction in bcl-2 level at 10 uM incubated for 48 hrs in presence of gamabufotalin by immunoblot analysis; format: functional, cell-based
Hep 3B2 [29] = test: Induction of autophagy in human Hep3B cells harbouring mCherry-egfp-LC3 assessed as reduction in yellow puncta ratio at 10 nM incubated for 15 mins in presence of gamabufotalin by laser scanning confocal microscopic analysis; format: functional, cell-based
Hep 3B2 [30] = test: Induction of autophagy in human Hep3B cells harbouring mCherry-egfp-LC3 assessed as reduction in red puncta ratio at 10 nM incubated for 15 mins in presence of gamabufotalin by laser scanning confocal microscopic analysis; format: functional, cell-based
Hep 3B2 [31] = test: Induction of autophagy in human Hep3B cells assessed as reduction in autophagic vesicles at 10 nM incubated for 48 hrs in presence of gamabufotalin by transmission electron microscopy based analysis; format: functional, cell-based
Huh-7 [32] = test: Induction of autophagy in human Huh-7 cells harbouring mCherry-egfp-LC3 assessed as reduction in yellow puncta ratio at 10 nM incubated for 15 mins in presence of gamabufotalin by laser scanning confocal microscopic analysis; format: functional, cell-based
Huh-7 [33] = test: Induction of autophagy in human Huh-7 cells harbouring mCherry-egfp-LC3 assessed as reduction in red puncta ratio at 10 nM incubated for 15 mins in presence of gamabufotalin by laser scanning confocal microscopic analysis; format: functional, cell-based
Huh-7 [34] = test: Induction of autophagy in human Huh-7 cells assessed as reduction in autophagic vesicles at 10 nM incubated for 48 hrs in presence of gamabufotalin by transmission electron microscopy based analysis; format: functional, cell-based
Hep 3B2 [35] = test: Induction of autophagy in human Hep3B cells assessed as restoration of mTOR phosphorylation expression at 10 uM incubated for 48 hrs in presence of gamabufotalin by immunoblot analysis; format: functional, cell-based
Hep 3B2 [36] = test: Induction of autophagy in human Hep3B cells assessed as restoration of ULK1 phosphorylation expression at 10 uM incubated for 48 hrs in presence of gamabufotalin by immunoblot analysis; format: functional, cell-based
Huh-7 [37] = test: Induction of autophagy in human Huh-7 cells assessed as restoration of mTOR phosphorylation expression at 10 uM incubated for 48 hrs in presence of gamabufotalin by immunoblot analysis; format: functional, cell-based
Huh-7 [38] = test: Induction of autophagy in human Huh-7 cells assessed as restoration of ULK1 phosphorylation expression at 10 uM incubated for 48 hrs in presence of gamabufotalin by immunoblot analysis; format: functional, cell-based
Hep 3B2 [39] = test: Induction of autophagy in human Hep3B cells assessed as upregulation of p62 at 10 uM incubated for 48 hrs in presence of gamabufotalin by immunoblot analysis; format: functional, cell-based
Huh-7 [40] = test: Induction of autophagy in human Huh-7 cells assessed as upregulation of p62 at 10 uM incubated for 48 hrs in presence of gamabufotalin by immunoblot analysis; format: functional, cell-based
Hep 3B2 [41] = test: Induction of autophagy in human Hep3B cells assessed as downregulation of LC3II/LC3I ratio at 10 uM incubated for 48 hrs in presence of gamabufotalin by immunoblot analysis; format: functional, cell-based
Huh-7 [42] = test: Induction of autophagy in human Huh-7 cells assessed as downregulation of LC3II/LC3I ratio at 10 uM incubated for 48 hrs in presence of gamabufotalin by immunoblot analysis; format: functional, cell-based

`O=[N+]([O-])c1ccc(Nc2nc(N3CCOCC3)nc(N3CCOCC3)n2)cc1` showed a viability at 0.01 µM (Hep 3B2 [1]) of 94%, an Activity (Hep 3B2 [2]) of 2.5% and an Activity (Hep 3B2 [3]) of 3.4%. It also gave an Activity (Hep 3B2 [4]) of 0.1%, a viability at 0.01 µM (Hep 3B2 [5]) of 67.2% and an Activity (Hep 3B2 [6]) of 10.9%. The Activity (Hep 3B2 [7]) was 20.2%, the Activity (Hep 3B2 [8]) was 1.7% and the viability at 0.01 µM (Huh-7 [9]) was 92.6%. It also gave an Activity (Huh-7 [10]) of 3.8%, an Activity (Huh-7 [11]) of 2.9% and an Activity (Huh-7 [12]) of 0.7%. The viability at 0.01 µM (Huh-7 [13]) was 76.8%, the Activity (Huh-7 [14]) was 14.9% and the Activity (Huh-7 [15]) was 6.6%. The Activity (Huh-7 [16]) was 1.7%, the Activity (Hep 3B2 [17]) was “Active” and the Activity (Hep 3B2 [18]) was “Active”. The Activity (Hep 3B2 [19]) was “Active”, the Activity (Hep 3B2 [20]) was “Active” and the Activity (Hep 3B2 [21]) was “Active”. For the same compound, the Activity (Hep 3B2 [22]) was “Active”, the Activity (Huh-7 [23]) was “Active” and the Activity (Huh-7 [24]) was “Active”. For the same compound, the Activity (Huh-7 [25]) was “Active”, the Activity (Huh-7 [26]) was “Active” and the Activity (Huh-7 [27]) was “Active”. For the same compound, the Activity (Huh-7 [28]) was “Active”, the Activity (Hep 3B2 [29]) was “Active” and the Activity (Hep 3B2 [30]) was “Active”. For the same compound, the Activity (Hep 3B2 [31]) was “Active”, the Activity (Huh-7 [32]) was “Active” and the Activity (Huh-7 [33]) was “Active”. The Activity (Huh-7 [34]) was “Active”, the Activity (Hep 3B2 [35]) was “Active” and the Activity (Hep 3B2 [36]) was “Active”. The Activity (Huh-7 [37]) was “Active”, the Activity (Huh-7 [38]) was “Active” and the Activity (Hep 3B2 [39]) was “Active”. The Activity (Huh-7 [40]) was “Active”, the Activity (Hep 3B2 [41]) was “Active” and the Activity (Huh-7 [42]) was “Active”.
